Holding throughout (assay): Fluorescence polarization (FP) PKC inhibition assay, Protein Kinase C Assay Kit, Red (Invitrogen)
What all share (type): biochemical
On the technique in general: In fluorescence polarisation assays a small probe gives low polarisation when free and higher when bound to something large.

Assay [1] deals with T1, PKC zeta (Homo sapiens, UniProt Q05513).
T1 construct: purchased Invitrogen 9232
T1 sequence (Q05513 1-592): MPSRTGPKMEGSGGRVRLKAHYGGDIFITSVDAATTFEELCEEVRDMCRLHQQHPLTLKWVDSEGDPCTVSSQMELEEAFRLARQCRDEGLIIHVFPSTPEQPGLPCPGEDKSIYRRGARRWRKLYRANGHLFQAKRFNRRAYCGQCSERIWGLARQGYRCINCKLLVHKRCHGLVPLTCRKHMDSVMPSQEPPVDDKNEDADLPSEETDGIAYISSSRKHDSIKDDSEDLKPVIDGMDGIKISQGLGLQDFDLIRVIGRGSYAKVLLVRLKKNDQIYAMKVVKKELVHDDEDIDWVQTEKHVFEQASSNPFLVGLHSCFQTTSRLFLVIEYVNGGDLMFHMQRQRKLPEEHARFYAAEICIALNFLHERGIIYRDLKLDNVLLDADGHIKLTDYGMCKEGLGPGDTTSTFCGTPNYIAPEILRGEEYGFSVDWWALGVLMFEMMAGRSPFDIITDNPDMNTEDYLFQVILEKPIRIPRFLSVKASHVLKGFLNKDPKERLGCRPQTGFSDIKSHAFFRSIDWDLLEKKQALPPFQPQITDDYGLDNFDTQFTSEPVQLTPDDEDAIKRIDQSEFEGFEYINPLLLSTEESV
The note with it: enzyme 20 ng/ml, ATP 2.5 μM. How it is done: (§1) To perform the assay, 2 μl of a solution of the compound to be tested in DMSO (at each concentration) was added to 6 μl of a solution of the enzyme in 10 mM HEPES, 5 mM dithiotreitol, 0.1% Triton X-100, pH 7,4.
(§2) After incubating for 30 minutes at room temperature, 4 μl of a mixture of ATP and the protein substrate in 60 mM HEPES (pH7.4), 15 mM MgCl2, 0.3 mM CaCl2, 0.06% NP40 was added.
(§3) After incubating for 80 minutes at room temperature, 3 μl of a mix solution of 500 mM EDTA (stop solution) and the Rhodamine-based PKC Red Tracer (from the Protein Kinase C Assay Kit) in BGG/phosphate buffer (pH7.4) with 0.02% NaN3 and 0.1% Triton X-100 was added and 5 μl of a the Anti-Phosphoserine antibody (also from the Protein Kinase C Assay Kit) in BGG/phosphate buffer (pH7.4) with 0.02% NaN3.
(§4) The results were fitted to a curve using the XL-Fit algorithm and IC50 values were calculated for each fitted curve, again using the XL-Fit algorithm.

Assay [2] addresses T2, PKC theta (Homo sapiens, UniProt Q04759).
T2 construct: purchased Invitrogen 7101
The note with it: enzyme 20 ng/ml, ATP 2.5 μM. How it is done: (§5) The substrate used was […]
as §1, §2, §3, §4

The target in assay [3] is T3, PKC gamma (Homo sapiens, UniProt P05129).
T3 construct: purchased Invitrogen 9343
Conditions: enzyme 20 ng/ml, ATP 2.5 μM. As to the method:
as §5, §1, §2, §3, §4

Assay [4] has as its target T4, PKC epsilon (Homo sapiens, UniProt Q02156).
T4 construct: purchased Invitrogen 6906
T4 sequence (Q02156 1-737): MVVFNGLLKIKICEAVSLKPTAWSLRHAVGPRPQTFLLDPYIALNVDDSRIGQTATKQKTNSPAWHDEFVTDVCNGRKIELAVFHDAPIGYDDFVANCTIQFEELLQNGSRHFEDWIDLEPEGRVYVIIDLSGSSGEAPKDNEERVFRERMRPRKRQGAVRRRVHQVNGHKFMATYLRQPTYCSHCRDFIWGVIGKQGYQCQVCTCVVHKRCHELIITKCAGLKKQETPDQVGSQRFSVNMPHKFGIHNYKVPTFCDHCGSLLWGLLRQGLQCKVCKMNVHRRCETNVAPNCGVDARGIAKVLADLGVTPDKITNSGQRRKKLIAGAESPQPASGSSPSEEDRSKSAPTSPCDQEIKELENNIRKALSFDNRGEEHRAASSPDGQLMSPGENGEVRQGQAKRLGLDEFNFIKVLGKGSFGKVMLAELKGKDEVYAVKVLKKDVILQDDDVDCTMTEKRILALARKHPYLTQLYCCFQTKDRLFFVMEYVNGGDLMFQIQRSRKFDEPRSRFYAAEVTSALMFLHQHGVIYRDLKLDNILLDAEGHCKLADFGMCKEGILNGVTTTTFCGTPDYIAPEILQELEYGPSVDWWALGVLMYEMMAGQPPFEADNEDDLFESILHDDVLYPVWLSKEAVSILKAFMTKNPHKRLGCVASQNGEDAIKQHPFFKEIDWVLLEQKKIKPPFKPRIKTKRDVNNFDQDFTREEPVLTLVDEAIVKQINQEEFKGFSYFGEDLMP
Conditions: enzyme 10 ng/ml, ATP 2.5 μM. As to the method: as §5, §1, §2, §3, §4

Where a name gives a salt, the structure may show the parent alone.

T2 sequence (Q04759 whole entry): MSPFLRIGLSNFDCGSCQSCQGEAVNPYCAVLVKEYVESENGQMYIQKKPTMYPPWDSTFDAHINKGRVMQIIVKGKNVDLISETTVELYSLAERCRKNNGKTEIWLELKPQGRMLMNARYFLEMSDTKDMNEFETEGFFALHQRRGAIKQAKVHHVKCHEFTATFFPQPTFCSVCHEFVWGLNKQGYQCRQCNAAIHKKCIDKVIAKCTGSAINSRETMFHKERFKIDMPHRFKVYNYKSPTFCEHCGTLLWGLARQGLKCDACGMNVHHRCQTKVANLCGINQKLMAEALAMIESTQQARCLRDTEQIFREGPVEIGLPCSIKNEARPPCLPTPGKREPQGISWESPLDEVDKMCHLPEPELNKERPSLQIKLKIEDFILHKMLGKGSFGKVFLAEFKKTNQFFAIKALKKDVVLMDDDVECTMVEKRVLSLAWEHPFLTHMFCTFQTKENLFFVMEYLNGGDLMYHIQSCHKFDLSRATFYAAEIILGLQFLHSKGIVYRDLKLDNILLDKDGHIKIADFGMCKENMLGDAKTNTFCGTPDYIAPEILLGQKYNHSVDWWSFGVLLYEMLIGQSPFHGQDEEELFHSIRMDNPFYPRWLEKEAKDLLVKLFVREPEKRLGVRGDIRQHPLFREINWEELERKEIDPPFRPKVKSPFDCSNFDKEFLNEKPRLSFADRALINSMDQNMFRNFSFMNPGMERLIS

For the compound “4-aminomethyl-2,5-dimethyl-N-pyridin-4-yl-benzamide dihydrochloric acid salt [Compound 39]”, the IC50 in assay [1] (substrate RFARKGSLRQKNV 1 μM) was over 100 µM; in assay [2] (substrate RFARKGSLRQKNV 1 μM), 16.8 µM; in assay [3] (substrate RFARKGSLRQKNV 1 μM), over 100 µM; in assay [4] (substrate RFARKGSLRQKNV 1 μM), 8.3 µM.
On to `CC(N)c1ccc(C(=O)Nc2ccncc2)s1` (racemic) [Compound 22, 5-(1-amino-ethyl)-thiophene-2-carboxylic acid pyridinedin-4-ylamide], for which the IC50 is 45.9 µM in assay [1] (substrate […] 1 μM), 9.01 µM in assay [2] (substrate […] 1 μM), over 100 µM in assay [3] (substrate […] 1 μM) and 16 µM in assay [4] (substrate […] 1 μM).
Consider `NCCCCCC(=O)Nc1ccncc1` [Compound 1, 6-Amino-hexanoic acid pyridine-4-ylamide dihydrochloric acid salt], for which the 50% inhibitory concentration (IC50) in assay [1] (substrate […] 1 μM), in assay [2] (substrate […] 1 μM), in assay [3] (substrate […] 1 μM) and in assay [4] (substrate […] 1 μM) was over 100 µM throughout.
Turning to `CC(C)(C)C1CCC(C(=O)Nc2ccncc2)CC1` (stereo not drawn) [Compound 2, 4-tert-butyl-cyclohexanecarboxylic acid pyridine-4-ylamide], the IC50 in assay [1] (substrate […] 1 μM), in assay [2] (substrate […] 1 μM), in assay [3] (substrate […] 1 μM) and in assay [4] (substrate […] 1 μM) was over 100 µM throughout.
As to `NC[C@H]1CC[C@H](C(=O)Nc2ccccc2)CC1` [Compound 3, Trans-4-aminomethyl-cyclohexanecarboxylic acid phenylamide hydrochloric acid salt], the IC50 was 40.3 µM in assay [1] (substrate […] 1 μM), over 100 µM in assay [2] (substrate […] 1 μM), 90.5 µM in assay [3] (substrate […] 1 μM) and over 100 µM in assay [4] (substrate […] 1 μM).
As to `NC[C@H]1CC[C@H](C(=O)Nc2ccc(F)cc2)CC1` [Compound 4, Trans-4-aminomethyl-cyclohexanecarboxylic acid (4-fluoro-phenyl)-amide hydrochloric acid salt], the IC50 in assay [1] (substrate […] 1 μM), in assay [2] (substrate […] 1 μM), in assay [3] (substrate […] 1 μM) and in assay [4] (substrate […] 1 μM) was over 100 µM throughout.
For `NC[C@H]1CC[C@H](C(=O)NCc2ccncc2)CC1` [Compound 5, Trans-4-aminomethyl-cyclohexanecarboxylic acid (pyridine-4-ylmethyl)-amide], the IC50 in assay [1] (substrate […] 1 μM), in assay [2] (substrate […] 1 μM), in assay [3] (substrate […] 1 μM) and in assay [4] (substrate […] 1 μM) was over 100 µM in each case.
On to `NC[C@H]1CC[C@H](C(=O)Nc2cccnc2)CC1` [Compound 6, Trans-4-aminomethyl-cyclohexanecarboxylic acid pyridin-3-ylamide], for which the IC50 in assay [1] (substrate […] 1 μM), in assay [2] (substrate […] 1 μM), in assay [3] (substrate […] 1 μM) and in assay [4] (substrate […] 1 μM) was over 100 µM each time.
Take `NC[C@H]1CC[C@H](C(=O)Nc2ccccn2)CC1` [Compound 7, Trans-4-aminomethyl-cyclohexanecarboxylic acid pyridin-2-ylamide]: the IC50 in assay [1] (substrate […] 1 μM), in assay [2] (substrate […] 1 μM), in assay [3] (substrate […] 1 μM) and in assay [4] (substrate […] 1 μM) was over 100 µM each time.
Regarding `CC(O)c1ccc(C(=O)Nc2ccncc2)cc1` (stereo not drawn) [Compound 8, 4-(1-hydroxy-ethyl)-N-pyridin-4-yl-benzamide], the IC50 in assay [1] (substrate […] 1 μM), in assay [2] (substrate […] 1 μM), in assay [3] (substrate […] 1 μM) and in assay [4] (substrate […] 1 μM) was over 100 µM in each case.
In the case of `NCc1cccc(C(=O)Nc2ccncc2)c1` [Compound 9, 3-aminomethyl-N-pyridin-4-yl-benzamide dihydrochloric acid salt], the IC50 in assay [1] (substrate […] 1 μM), in assay [2] (substrate […] 1 μM), in assay [3] (substrate […] 1 μM) and in assay [4] (substrate […] 1 μM) was over 100 µM throughout.
With `NCc1ccc(S(=O)(=O)Nc2ccncc2)cc1` [Compound 10, 4-aminomethyl-N-pyridin-4-yl-benzenesulfonamide], the half-maximal inhibitory concentration (IC50) in assay [1] (substrate […] 1 μM), in assay [2] (substrate […] 1 μM), in assay [3] (substrate […] 1 μM) and in assay [4] (substrate […] 1 μM) was over 100 µM throughout.
As for `NCc1ccc(NCc2ccncc2)cc1` [Compound 11, (4-aminomethyl-phenyl)-pyridin-4-ylmethyl-amine dihydrochloric acid salt], the IC50 in assay [1] (substrate […] 1 μM), in assay [2] (substrate […] 1 μM), in assay [3] (substrate […] 1 μM) and in assay [4] (substrate […] 1 μM) was over 100 µM in each case.
`N/C(=N\O)c1ccc(C(=O)Nc2ccncc2)cc1` [Compound 12, 4-(N-pyridin-4-yl)-benzamide oxime]: the IC50 in assay [1] (substrate […] 1 μM), in assay [2] (substrate […] 1 μM), in assay [3] (substrate […] 1 μM) and in assay [4] (substrate […] 1 μM) was over 100 µM each time.
Turning to `NCc1ccc(-c2nc(-c3ccncc3)no2)cc1` [Compound 13, 4-(3-pyridin-4-yl-[1,2,4]oxadiazol-5-yl-benzylaminedihydrochloric acid salt], the IC50 in assay [1] (substrate […] 1 μM), in assay [2] (substrate […] 1 μM), in assay [3] (substrate […] 1 μM) and in assay [4] (substrate […] 1 μM) was over 100 µM throughout.
Turning to `NCc1ccc(-c2nc3ccncc3[nH]2)cc1` [Compound 14, 4-(3H-imidazo[4,5-c]pyridine-2-yl)-benzylamine], the IC50 in assay [1] (substrate […] 1 μM), in assay [2] (substrate […] 1 μM), in assay [3] (substrate […] 1 μM) and in assay [4] (substrate […] 1 μM) was over 100 µM throughout.
For `NCc1ccc(C(=O)Nc2ccncc2)o1` [Compound 15, 5-(amino-methyl)-furan-2-carboxylic acid pyridine-4-ylamide dihydrochloric acid salt], the IC50 in assay [1] (substrate […] 1 μM), in assay [2] (substrate […] 1 μM), in assay [3] (substrate […] 1 μM) and in assay [4] (substrate […] 1 μM) was over 100 µM in each case.
As for `CC(=O)NCc1ccc(C(=O)Nc2ccncc2)cc1` [Compound 16], the IC50 in assay [1] (substrate […] 1 μM), in assay [2] (substrate […] 1 μM), in assay [3] (substrate […] 1 μM) and in assay [4] (substrate […] 1 μM) was over 100 µM throughout.
`CC(c1ccc(C(=O)Nc2ccncc2)cc1)N(C)C` (stereo not drawn) [Compound 17]: the IC50 in assay [1] (substrate […] 1 μM), in assay [2] (substrate […] 1 μM), in assay [3] (substrate […] 1 μM) and in assay [4] (substrate […] 1 μM) was over 100 µM each time.
In the case of `NC[C@H]1CC[C@H](C(=O)Nc2ccncc2)CC1` [Compound 19, Trans-4-aminomethyl-cyclohexanecarboxylic acid pyridin-4-ylamide], the IC50 in assay [1] (substrate […] 1 μM) is 24.3 µM; in assay [2] (substrate […] 1 μM), 7.35 µM; in assay [3] (substrate […] 1 μM), over 100 µM; in assay [4] (substrate […] 1 μM), 5.12 µM.
For `NCc1ccc(C(=O)Nc2ccncc2)cc1` [Compound 20, 4-aminomethyl-N-pyridin-4-yl-benzamide dihydrochloric acid salt], the IC50 in assay [1] (substrate […] 1 μM) was 51.4 µM; in assay [2] (substrate […] 1 μM) it was 9.14 µM; in assay [3] (substrate […] 1 μM), over 100 µM; in assay [4] (substrate […] 1 μM) it was 6.23 µM.
Consider `CC(N)c1ccc(C(=O)Nc2ccnc3[nH]ccc23)s1` (stereo not drawn) [Compound 40, 5-(1-amino-ethyl)-thiophene-2-carboxylic acid N-(1H-pyrrolo[2,3pyridinedin-4-yl)-benzamidedihydrochloric acid salt], for which the IC50 in assay [1] (substrate […] 1 μM) is over 100 µM; in assay [2] (substrate […] 1 μM), 3.2 µM; in assay [4] (substrate […] 1 μM), 3.9 µM.

One may read the IC50 as the concentration that inhibits the measured activity by half. A low value points to greater potency in that assay.

Source of the values: patent US20070191420A1, “Kinase inhibitors” (Devgen NV, priority 2004, published 2007).
